# Laboratory results from PubChem BioAssay AID2060892 (Molecular Pharmacology Branch, DTP, NCI, 2025).
# Test system: HOP-62 complex spheroids with HUVEC/MSC, viability
# Experiment: Anticancer human tumor HOP-62 cell line growth inhibition [RAS];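 also: spheroids exposed to agents for seven days before readout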;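 as to viability, T/C: 100% = DMSO vehicle control viability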
# Settings: for IC50: curve of first compound; for viability, T/C: stronger effect = lower value
# Excerpt: RAS pathway inhibitors in Combinations in Complex Spheroids
# A high-throughput screen of multi-cell type tumor spheroids was designed to identify active combinations of RAS pathway inhibitors and targeted small molecules. Complex spheroids include a stromal component modeled by human endothelial cells (HUVEC) and fibroblasts modeled by human mesenchymal stem cells (MSCs). The concentration ranges selected for each drug and investigational agent were based upon clinically achievable concentrations if the clinical Cmax of the agent was known.
# Compounds. The drugs and investigational agents: abemaciclib (NSC768073), cobimetinib (NSC768068), divarasib (GDC6063, NSC841802), docetaxel (NSC628503), GDC-1971 (RLY-1971, NSC841576), gemcitabine (NSC613327), inavolisib (NSC800729), ipatasertib (NSC767898), KB-0742 (NSC834161), MRTX-1133 (NSC836407), osimertinib (NSC779217), RMC-4630 (NSC839698), RMC-6236 (NSC851965), RMC-6291 (NSC852671), Ro-3306 (NSC812927), sapanisertib (NSC764658), SN-38 (NSC673596), staurosporine (NSC755774), SY5609 (NSC837396), and tovorafenib (DAY101, NSC766906), were obtained from the National Cancer Institute (NCI) Developmental Therapeutics Program Chemical Repository. The FDA-approved anticancer drug set is available from the NCI Developmental Therapeutics Program. […] The stock solutions were prepared in dimethyl sulfoxide (DMSO, Sigma-Aldrich, St. Louis, MO, cat. D2650) at 800-fold the tested concentration and stored at -70 degrees C prior to their use. All drugs and investigational agents were tested over a range starting from a high concentration at or near the clinical Cmax and decreasing in half-log increments. If the clinical Cmax for an agent had not been determined, the highest concentration tested was 10 microM.
# Cell Culture. All cells were maintained in an incubator at 37 degrees C and 5% CO2 with 95% humidity. The PDC lines were cultured according to standard operating procedures established by the NCI PDMR. All PDCs were thawed and cultured in Matrigel-coated flasks prepared with a working solution of 1X Ham's F-12 nutrient mix, without supplementation (Invitrogen, Waltham, MA, cat. 11765054), 100 U/mL penicillin-streptomycin (Invitrogen, cat. 15140122), and 2.5% Matrigel (Corning Inc., Corning, NY, cat. 354248) for the first three passages. The 362531-283-R-J2-PDC and 782815-120-R-J1-PDC lines were cultured in 6C/Colon 1B media, which includes advanced DMEM/F-12 (Thermo Fisher Scientific, cat. 12634028), 10 mM HEPES (Thermo Fisher Scientific, cat. 15630080), 1X GlutaMAX supplement (Thermo Fisher Scientific, cat. 35050061), 0.1 mg/mL primocin (InvivoGen, San Diego, CA, cat. ant-pm-2), 10% defined fetal bovine serum, heat inactivated (HyClone Laboratories Inc., Logan, UT, cat. SH30070.03HI), 50% L-WRN conditioned media (ATCC, cat. CRL-3276), 1.25 mM N-Acetyl-L-cysteine (Sigma-Aldrich, cat. A9165), 10 mM nicotinamide (Sigma-Aldrich, cat. N0636), 1X B-27 supplement (Thermo Fisher Scientific, cat. 17504044), 1X N-2 supplement (Thermo Fisher Scientific, cat. 17502048), 50 ng/mL human EGF (Thermo Fisher Scientific, cat. PHG0311), and 10 microM Y-27632 dihydrochloride (Tocris Bioscience, cat. 1254). The K12877-001-R-J1-PDC line was cultured in 6I media, which includes all 6C/Colon 1B media plus 10 ng/mL human FGF-10 (PeproTech, cat. 100-26), 1 ng/mL human FGF-2 (PeproTech, cat. 100-18B), 1 µM prostaglandin E2 (Tocris Bioscience, cat. 2296), […] hydrocortisone (Sigma-Aldrich, cat. H4001), and […] bovine insulin (Sigma-Aldrich, cat. I6634). The K86415-001-R-J1-PDC line was cultured in 6D media, which includes all 6C/Colon 1B media components minus the L-WRN conditioned media. The 485176-168-R4-J1-PDC was cultured in PANC media, which includes all 6C/Colon 1B media plus 100 ng/mL human FGF-10 (PeproTech, cat. 100-26), 500 nM SB-431542 (Selleckchem, cat. S1067), and 10 nM gastrin (Tocris Bioscience, cat. 3006). […]
smiles,measurement,setting,value
C[C@@H](NC(=O)c1ncnc(N)c1Cl)c1ncc(C(=O)Nc2cc(C(F)(F)F)c(Cl)cn2)s1 + CCn1c(-c2cc(N3CCN(C)CC3)cnc2C(C)OC)c2c3cc(ccc31)-c1csc(n1)CC(NC(=O)C1CC1C)C(=O)N1CCCC(N1)C(=O)OCC(C)(C)C2,IC50,second compound 0.000949 µM,> 10 µM
same,IC50,second compound 0.003 µM,> 10 µM
same,IC50,second compound 0.00949 µM,> 10 µM
same,IC50,second compound 0.03 µM,> 10 µM
same,IC50,second compound 0.0949 µM,0.342 µM
same,IC50,second compound 0.3 µM,< 0.0316 µM
same,"viability, T/C","second compound 0.000949 µM, first compound 0.0316 µM",111%
same,"viability, T/C","second compound 0.000949 µM, first compound 0.1 µM",119%
same,"viability, T/C","second compound 0.000949 µM, first compound 0.316 µM",93.4%
same,"viability, T/C","second compound 0.000949 µM, first compound 1 µM",115%
same,"viability, T/C","second compound 0.000949 µM, first compound 3.16 µM",114%
same,"viability, T/C","second compound 0.000949 µM, first compound 10 µM",74.6%
same,"viability, T/C","second compound 0.003 µM, first compound 0.0316 µM",107%
same,"viability, T/C","second compound 0.003 µM, first compound 0.1 µM",101%
same,"viability, T/C","second compound 0.003 µM, first compound 0.316 µM",96.7%
same,"viability, T/C","second compound 0.003 µM, first compound 1 µM",104%
same,"viability, T/C","second compound 0.003 µM, first compound 3.16 µM",94.7%
same,"viability, T/C","second compound 0.003 µM, first compound 10 µM",60.6%
same,"viability, T/C","second compound 0.00949 µM, first compound 0.0316 µM",80.9%
same,"viability, T/C","second compound 0.00949 µM, first compound 0.1 µM",99.5%
same,"viability, T/C","second compound 0.00949 µM, first compound 0.316 µM",76.4%
same,"viability, T/C","second compound 0.00949 µM, first compound 1 µM",83.7%
same,"viability, T/C","second compound 0.00949 µM, first compound 3.16 µM",75.9%
same,"viability, T/C","second compound 0.00949 µM, first compound 10 µM",51.3%
same,"viability, T/C","second compound 0.03 µM, first compound 0.0316 µM",65.9%
same,"viability, T/C","second compound 0.03 µM, first compound 0.1 µM",56.7%
same,"viability, T/C","second compound 0.03 µM, first compound 0.316 µM",62.1%
same,"viability, T/C","second compound 0.03 µM, first compound 1 µM",66.4%
same,"viability, T/C","second compound 0.03 µM, first compound 3.16 µM",47.8%
same,"viability, T/C","second compound 0.03 µM, first compound 10 µM",57%
same,"viability, T/C","second compound 0.0949 µM, first compound 0.0316 µM",46.9%
same,"viability, T/C","second compound 0.0949 µM, first compound 0.1 µM",56.4%
same,"viability, T/C","second compound 0.0949 µM, first compound 0.316 µM",48.2%
same,"viability, T/C","second compound 0.0949 µM, first compound 1 µM",54.4%
same,"viability, T/C","second compound 0.0949 µM, first compound 3.16 µM",38.6%
same,"viability, T/C","second compound 0.0949 µM, first compound 10 µM",55%
same,"viability, T/C","second compound 0.3 µM, first compound 0.0316 µM",47.7%
same,"viability, T/C","second compound 0.3 µM, first compound 0.1 µM",49.6%
same,"viability, T/C","second compound 0.3 µM, first compound 0.316 µM",43.9%
same,"viability, T/C","second compound 0.3 µM, first compound 1 µM",41.3%
same,"viability, T/C","second compound 0.3 µM, first compound 3.16 µM",45.4%
same,"viability, T/C","second compound 0.3 µM, first compound 10 µM",47.3%
